The values that follow come from US8207216B2, “Benzofuran-3-yl(indol-3-yl) maleimides as potent GSK3 inhibitors” (The Board of Trustees of the University of Illinois, priority 2006, dated 2012).

Assay [1] deals with T1, recombinant human His6-GSK-3β (Homo sapiens, UniProt P49841).
T1 construct: His6; purchased EMD Biosciences
In words: GSK-3β kinase assay, [γ32P] transfer to primed glycogen synthase peptide.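 On all read-outs here: phosphate incorporation quantified by liquid scintillation counting of the filters.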 The class given is biochemical. The settings on record: for IC50: 10 μM ATP, 10 μM pGSM peptide, 30 minutes at 30° C., read-out: IC50 (nM), GSK-3β inhibition.

The subject of another assay is MIAPaCa-2. In words: Antiproliferation MTS assay, pancreatic cancer cells. It counts as cell-based. The settings on record: Homo sapiens. On the technique in general: Formazan colour is commonly taken as a measure of viable cells.
A further assay deals with BXPC-3. The assay is described as above. The class given is cell-based. The settings on record: Homo sapiens.
The test system of a further assay is HupT3. The assay is described as above. It counts as cell-based. The settings on record: Homo sapiens.
The subject of assay [2] is pancreatic cancer cell lines. Description: Proliferation and survival of pancreatic cancer cells (overall statements). It counts as cell-based. Conditions: based on data of Table 5. The protocol: (§1) The pancreatic cancer cell lines BxPc-3, HupT3, MiaPaCa-2, Panc 04.03, and SU86.86 were obtained from ATCC (Rockville, Md.) and were grown in medium (DMEM or RPMI) containing 10% fetal calf serum and L-glutamine. Pancreatic cancer cells were plated out in duplicate into 6-wells of a 96-well microtiter plate at 2.5−4×10^3 cells per well. Four-hours post plating, individual wells were treated with diluent (DMSO) or varying concentrations of commercial compounds, AR-A014418 and SB216763, or the indicated GSK inhibitors of this invention from a concentration of 1 nM to 50 microM. […] The IC50s were calculated using XLfit (IDBS Limited, Guildford, UK).

For another assay, the target named is CDK-2/cyclinE (Homo sapiens, UniProt P24941). In words: CDK-2/CyclinE inhibition (Reaction Biology). Conditions: for IC50: tested at Reaction Biology, Inc.; for IC50 Ratio CDK-2/cyclinE GSK-3β: selectivity ratio. The class given is biochemical.
Another assay concerns OVCA432. In words: Antiproliferation assay, ovarian cancer cells. The class given is cell-based. The settings on record: ovarian cancer cell proliferation. As to the method: as §1
(§2) Similar antiproliferation assays were performed using ovarian cancer cells. Compound 40 is of particular interest for inhibition of ovarian cancer cell proliferation.

Another assay deals with SKOV3. In words: Antiproliferation assay, ovarian cancer cells. The settings on record: Homo sapiens, SK-OV-3; ovarian cancer cell proliferation. The class given is cell-based. As to the method: as §1, §2
A further assay concerns the target CDK2 (Homo sapiens, UniProt P24941). Description: Inhibition of various kinases (% inhibition). It counts as biochemical. The text has this: (§3) Additional examples of selectivity are illustrated in Table 4.
Another assay concerns the target GSK3α (Homo sapiens, UniProt P49840). In words: Inhibition of various kinases (% inhibition). It counts as biochemical.
Source text: as §3

A further assay has as its target T2, PDK1 (Homo sapiens, UniProt O15530).
T2 sequence (O15530 1-556): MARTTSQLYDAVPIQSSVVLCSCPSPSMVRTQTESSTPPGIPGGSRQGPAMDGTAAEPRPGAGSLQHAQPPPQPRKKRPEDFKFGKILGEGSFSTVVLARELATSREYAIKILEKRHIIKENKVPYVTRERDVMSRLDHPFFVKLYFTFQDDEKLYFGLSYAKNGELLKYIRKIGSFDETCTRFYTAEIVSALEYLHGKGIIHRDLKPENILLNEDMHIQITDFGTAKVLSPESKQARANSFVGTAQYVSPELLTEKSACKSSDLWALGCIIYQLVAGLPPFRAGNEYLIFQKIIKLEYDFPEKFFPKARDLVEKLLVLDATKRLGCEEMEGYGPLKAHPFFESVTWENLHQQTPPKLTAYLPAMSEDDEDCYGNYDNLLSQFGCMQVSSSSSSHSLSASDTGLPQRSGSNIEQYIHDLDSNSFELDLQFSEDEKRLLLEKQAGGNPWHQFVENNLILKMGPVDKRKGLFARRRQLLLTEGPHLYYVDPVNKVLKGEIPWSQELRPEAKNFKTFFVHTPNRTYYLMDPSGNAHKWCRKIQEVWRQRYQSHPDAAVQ
Description: Inhibition of various kinases (% inhibition). It counts as biochemical.
Source text: as §3

Another assay addresses PKCβ2 (Homo sapiens, UniProt P05771). Description: Inhibition of various kinases (% inhibition). It counts as biochemical.
Source text: as §3

The target in a further assay is CDK-1/cyclinB (Homo sapiens, UniProt P06493). Description: CDK panel (Reaction Biology). It counts as biochemical. The settings on record: tested at Reaction Biology, Inc.
The target of another assay is CDK-2/cyclinA (Homo sapiens, UniProt P24941). Description: CDK panel (Reaction Biology). It counts as biochemical. The settings on record: tested at Reaction Biology, Inc.
The target in the next assay is CDK-4/cyclinD1 (Homo sapiens, UniProt P11802). In words: CDK panel (Reaction Biology). The class given is biochemical. Conditions: tested at Reaction Biology, Inc.
The target of a further assay is CDK-6/cyclinD3 (Homo sapiens, UniProt Q00534). Description: CDK panel (Reaction Biology). The class given is biochemical. The settings on record: tested at Reaction Biology, Inc.
Where [3] appears, read: MIA PaCa-2, as reported in Gaisina et al. (2009) J. Med. Chem. 52(7), 1853-1863.
Setting [4] is: BXPC-3, as reported in Gaisina et al. (2009) J. Med. Chem. 52(7), 1853-1863.
Setting [5] is: HuP-T3, as reported in Gaisina et al. (2009) J. Med. Chem. 52(7), 1853-1863.

PKCβ2, sequence (P05771 1-673 isoform P05771-2): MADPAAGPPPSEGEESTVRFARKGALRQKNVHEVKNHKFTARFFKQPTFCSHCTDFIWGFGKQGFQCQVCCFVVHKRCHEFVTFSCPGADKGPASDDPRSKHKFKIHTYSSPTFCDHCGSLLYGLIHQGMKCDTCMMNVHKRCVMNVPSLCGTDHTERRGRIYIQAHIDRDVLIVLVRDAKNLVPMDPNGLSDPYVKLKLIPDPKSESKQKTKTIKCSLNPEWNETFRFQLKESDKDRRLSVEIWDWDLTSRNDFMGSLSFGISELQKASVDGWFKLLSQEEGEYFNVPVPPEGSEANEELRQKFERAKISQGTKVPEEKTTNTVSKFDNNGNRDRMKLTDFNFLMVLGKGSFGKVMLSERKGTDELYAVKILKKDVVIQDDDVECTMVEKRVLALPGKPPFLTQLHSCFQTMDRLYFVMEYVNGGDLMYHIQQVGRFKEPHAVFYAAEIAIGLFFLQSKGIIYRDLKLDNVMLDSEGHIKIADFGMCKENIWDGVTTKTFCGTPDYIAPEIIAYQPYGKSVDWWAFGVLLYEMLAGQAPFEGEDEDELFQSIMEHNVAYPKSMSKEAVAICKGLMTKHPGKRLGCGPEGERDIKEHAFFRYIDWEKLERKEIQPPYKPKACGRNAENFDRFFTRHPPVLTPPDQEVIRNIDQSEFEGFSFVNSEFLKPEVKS
T1 sequence (P49841 whole entry): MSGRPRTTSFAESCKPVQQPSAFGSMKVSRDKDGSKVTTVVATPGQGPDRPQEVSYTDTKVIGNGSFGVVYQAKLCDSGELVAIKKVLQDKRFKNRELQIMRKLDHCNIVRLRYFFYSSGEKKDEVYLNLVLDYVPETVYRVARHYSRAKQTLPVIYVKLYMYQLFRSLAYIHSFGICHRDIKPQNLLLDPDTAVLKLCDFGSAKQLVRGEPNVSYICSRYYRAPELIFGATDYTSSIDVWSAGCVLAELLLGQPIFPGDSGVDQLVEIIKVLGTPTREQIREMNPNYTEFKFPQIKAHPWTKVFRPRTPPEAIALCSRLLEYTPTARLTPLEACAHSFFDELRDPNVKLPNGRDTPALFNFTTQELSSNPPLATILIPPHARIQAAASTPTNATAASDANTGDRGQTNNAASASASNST
GSK3α, sequence (P49840 whole entry, species assumed): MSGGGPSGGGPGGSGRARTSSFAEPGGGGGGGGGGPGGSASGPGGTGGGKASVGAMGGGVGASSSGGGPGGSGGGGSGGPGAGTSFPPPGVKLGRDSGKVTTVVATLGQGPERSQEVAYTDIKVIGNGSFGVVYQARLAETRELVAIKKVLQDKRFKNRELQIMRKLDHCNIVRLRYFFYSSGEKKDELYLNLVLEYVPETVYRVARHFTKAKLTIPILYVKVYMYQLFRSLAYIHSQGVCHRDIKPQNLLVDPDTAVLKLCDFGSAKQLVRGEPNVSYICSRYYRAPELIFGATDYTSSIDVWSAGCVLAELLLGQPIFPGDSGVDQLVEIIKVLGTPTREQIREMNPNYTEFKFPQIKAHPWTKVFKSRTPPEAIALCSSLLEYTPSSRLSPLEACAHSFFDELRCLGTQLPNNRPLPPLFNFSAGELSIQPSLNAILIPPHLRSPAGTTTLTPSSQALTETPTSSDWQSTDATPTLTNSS
CDK-4/cyclinD1, sequence (P11802 whole entry, species assumed): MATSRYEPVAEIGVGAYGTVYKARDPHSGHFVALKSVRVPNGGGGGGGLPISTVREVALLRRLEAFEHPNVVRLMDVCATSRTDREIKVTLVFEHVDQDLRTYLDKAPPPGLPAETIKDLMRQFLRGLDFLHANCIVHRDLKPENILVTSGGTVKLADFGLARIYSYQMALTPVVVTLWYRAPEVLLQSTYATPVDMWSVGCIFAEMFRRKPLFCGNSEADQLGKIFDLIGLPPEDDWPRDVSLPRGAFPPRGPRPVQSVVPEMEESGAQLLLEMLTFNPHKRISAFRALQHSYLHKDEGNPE
CDK-4/cyclinD1, sequence (P24385 whole entry partner, species assumed): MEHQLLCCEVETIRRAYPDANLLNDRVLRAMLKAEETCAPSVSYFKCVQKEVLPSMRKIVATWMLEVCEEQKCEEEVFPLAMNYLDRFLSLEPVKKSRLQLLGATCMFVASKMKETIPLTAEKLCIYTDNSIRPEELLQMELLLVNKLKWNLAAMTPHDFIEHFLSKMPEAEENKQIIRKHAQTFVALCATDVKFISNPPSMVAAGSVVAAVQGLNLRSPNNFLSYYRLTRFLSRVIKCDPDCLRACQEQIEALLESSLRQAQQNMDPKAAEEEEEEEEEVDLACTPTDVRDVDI
CDK-6/cyclinD3, sequence (Q00534 whole entry, species assumed): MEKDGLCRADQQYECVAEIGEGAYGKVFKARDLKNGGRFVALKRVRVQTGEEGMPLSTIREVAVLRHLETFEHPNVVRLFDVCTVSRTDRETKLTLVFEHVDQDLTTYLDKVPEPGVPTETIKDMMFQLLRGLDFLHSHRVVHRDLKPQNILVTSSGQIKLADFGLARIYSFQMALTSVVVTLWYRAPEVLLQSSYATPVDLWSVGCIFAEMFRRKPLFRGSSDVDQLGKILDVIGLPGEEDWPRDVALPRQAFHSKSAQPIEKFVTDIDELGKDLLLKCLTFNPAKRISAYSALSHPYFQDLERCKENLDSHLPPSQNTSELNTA
CDK-6/cyclinD3, sequence (P30281 whole entry partner, species assumed): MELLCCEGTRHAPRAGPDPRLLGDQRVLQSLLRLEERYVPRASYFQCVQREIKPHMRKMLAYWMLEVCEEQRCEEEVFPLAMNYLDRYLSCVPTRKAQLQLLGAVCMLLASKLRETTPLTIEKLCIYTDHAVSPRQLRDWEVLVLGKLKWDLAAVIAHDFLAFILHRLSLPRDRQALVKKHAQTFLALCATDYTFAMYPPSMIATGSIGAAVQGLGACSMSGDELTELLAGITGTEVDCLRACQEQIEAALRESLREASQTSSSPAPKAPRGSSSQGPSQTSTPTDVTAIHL
CDK-1/cyclinB, sequence (P06493 whole entry, species assumed): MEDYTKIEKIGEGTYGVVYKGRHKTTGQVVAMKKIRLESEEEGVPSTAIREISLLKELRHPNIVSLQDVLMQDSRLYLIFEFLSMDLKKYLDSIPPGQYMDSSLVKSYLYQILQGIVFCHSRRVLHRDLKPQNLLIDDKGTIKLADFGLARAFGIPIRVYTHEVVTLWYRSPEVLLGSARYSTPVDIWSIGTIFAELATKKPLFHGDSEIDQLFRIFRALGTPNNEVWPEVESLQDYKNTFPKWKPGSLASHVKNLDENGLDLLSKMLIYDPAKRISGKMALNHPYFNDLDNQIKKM
CDK-1/cyclinB, sequence (P14635 whole entry partner, species assumed): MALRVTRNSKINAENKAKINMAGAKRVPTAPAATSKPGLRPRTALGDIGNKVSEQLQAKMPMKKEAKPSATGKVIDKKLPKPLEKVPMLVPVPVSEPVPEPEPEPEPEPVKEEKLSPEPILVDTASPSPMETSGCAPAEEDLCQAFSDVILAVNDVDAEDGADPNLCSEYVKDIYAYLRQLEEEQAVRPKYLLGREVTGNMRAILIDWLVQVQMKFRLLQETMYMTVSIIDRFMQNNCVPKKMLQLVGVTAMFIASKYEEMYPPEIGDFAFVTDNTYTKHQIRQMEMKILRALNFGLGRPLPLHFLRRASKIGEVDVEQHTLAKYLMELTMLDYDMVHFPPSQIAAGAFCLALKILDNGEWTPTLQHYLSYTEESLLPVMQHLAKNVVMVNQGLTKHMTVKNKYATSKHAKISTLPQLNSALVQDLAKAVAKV

For orientation: IC50 means the concentration needed to halve the response being measured. As for `COc1cccc2c(C3=C(c4cn(C)c5cc(C(F)(F)F)ccc45)C(=O)NC3=O)coc12` [Compound 49, 3-(7-Methoxy-benzofuran-3-yl)-4-(1-methyl-6-trifluoromethyl-1H-indol-3-yl)-pyrrole-2,5-dione], the IC50 was found to be 831 ± 77 nM in [1]; 8000 ± 1200 nM with MIAPaCa-2 (setting [3]); 8000 nM in the assay with MIAPaCa-2 (MIA PaCa-2, 72 hrs, MTS); 6000 ± 800 nM in the assay on BXPC-3 (setting [4]); 6000 nM in the assay with BXPC-3 (BXPC-3, 72 hrs, MTS); 6000 ± 500 nM in the assay with HupT3 (setting [5]). This compound showed an IC50 with HupT3 (HuP-T3, 72 hrs, MTS) of 6000 nM. Besides, the “Inhibition of pancreatic cancer cell proliferation compared with AR-A014418 and SB216768” value in [2] was “more effective inhibition of pancreatic cancer cell proliferation than these reference compounds”.

In the case of `Cn1cc(C2=C(c3coc4ccccc34)C(=O)NC2=O)c2cc(I)ccc21` [Compound 28, 3-Benzofuran-3-yl-4-(5-iodo-1-methyl-1H-indol-3-yl)-pyrrole-2,5-dione], the IC50 in assay [1] was 15.5 ± 3.5 nM; at CDK-2/cyclinE, 1070 nM; in the assay on HupT3 (setting [5]), > 50000 nM; with HupT3 (HuP-T3, 72 hrs, MTS), > 50000 nM; in the assay on OVCA432, 20000 nM; in the assay with SKOV3 it was 26700 nM.

Broadly, the Ki is the equilibrium dissociation constant of an inhibitor or competing ligand from its target. As to “3-Benzofuran-3-yl-4-[5-bromo-1-(3-hydroxy-propyl)-1H-indol-3-yl]-pyrrole-2,5-dione [Compound 20]”, the Ki in [1] amounted to 5 nM. The concentration for half-maximal inhibition (IC50) in [1] was 7.5 ± 1.1 nM; against CDK-2/cyclinE it was 1160 nM. The results for the “% Inhibition CDK2” value on CDK2 (1 μM) and at CDK2 (10 μM) were 76% and 90%, respectively. Besides, the “% Inhibition GSK3α” value amounted to 58% at GSK3α (1 μM) and 100% at GSK3α (10 μM). For the same compound, the “% Inhibition PDK1” value at PDK1 (1 μM) was 7%; at PDK1 (10 μM) it was −1%. The results for the “% Inhibition PKCβ2” value on PKCβ2 (1 μM) and at PKCβ2 (10 μM) were 8% and 62%, respectively. Further, the “IC50 Ratio CDK-2/cyclinE GSK-3β” value on CDK-2/cyclinE worked out at 150.

The term inhibition denotes the change of the read-out against control, counted positive when it falls. A lower inhibition goes with a weak effect. For the compound `O=C1NC(=O)C(c2cn(CCCO)c3ccc(Br)cc23)=C1c1coc2ccccc12` [Compound 21, 3-Benzofuran-3-yl-4-[5-bromo-1-(3-hydroxy-propyl)-1H-indol-3-yl]-pyrrole-2,5-dione], the IC50 in [1] turned out to be 1.61 ± 0.09 nM. Further, the inhibition at 1 µM on CDK2 (1 μM) was determined as 62%; against GSK3α (1 μM), 62%; at PDK1 (1 μM) it was 80%; against PKCβ2 (1 μM) it was 62%. The inhibition at 10 µM against CDK2 (10 μM) is 95%; at GSK3α (10 μM) it was 99%; against PDK1 (10 μM), 92%; against PKCβ2 (10 μM), 83%.

As to `Cn1cc(C2=C(c3coc4ccccc34)C(=O)NC2=O)c2cc(F)c(Cl)cc21` [Compound 12, 3-Benzofuran-3-yl-4-(6-chloro-5-fluoro-1-methyl-1H-indol-3-yl)-pyrrole-2,5-dione], the IC50 in assay [1] is 184 ± 31 nM; in the assay with MIAPaCa-2 (setting [3]), 3000 ± 400 nM; with MIAPaCa-2 (MIA PaCa-2, 72 hrs, MTS) it was < 1000 nM; in the assay with BXPC-3 (setting [4]), 2000 ± 200 nM; in the assay with HupT3 (setting [5]), 2000 ± 300 nM. In addition, the “Inhibition of pancreatic cancer cell proliferation compared with AR-A014418 and SB216768” value in [2] is listed as “more effective inhibition of pancreatic cancer cell proliferation than these reference compounds”.

Turning to `Cn1cc(C2=C(c3coc4ccc(F)cc34)C(=O)NC2=O)c2cc(C#CC3CC3)ccc21` [Compound 38, 3-(5-Cyclopropylethynyl-1-methyl-1H-indol-3-yl)-4-(5-fluoro-benzofuran-3-yl)-pyrrole-2,5-dione], the IC50 is 16.2 ± 3.9 nM in [1]; 34000 ± 2200 nM with MIAPaCa-2 (setting [3]); 34000 nM in the assay with MIAPaCa-2 (MIA PaCa-2, 72 hrs, MTS); > 50000 nM with BXPC-3 (setting [4]); > 50000 nM in the assay with BXPC-3 (BXPC-3, 72 hrs, MTS); > 50000 nM with HupT3 (setting [5]). Further, in the assay with HupT3 (HuP-T3, 72 hrs, MTS), the IC50 was > 50000 nM. For the same compound, in [2], the “Inhibition of pancreatic cancer cell proliferation compared with AR-A014418 and SB216768” value is reported as “more effective inhibition of pancreatic cancer cell proliferation than these reference compounds”.

As to `N#Cc1ccc2c(c1)c(C1=C(c3coc4cc(F)c(F)cc34)C(=O)NC1=O)cn2CC1CC1` [Compound 35, 1-Cyclopropylmethyl-3-[4-(5,6-difluoro-benzofuran-3-yl)-2,5-dioxo-2,5-dihydro-1H-pyrrol-3-yl]-1H-indole-5-carbonitrile], the IC50 in assay [1] is 131 ± 22 nM; with MIAPaCa-2 (MIA PaCa-2, 72 hrs, MTS), 14000 nM; with BXPC-3 (BXPC-3, 72 hrs, MTS) it was > 50000 nM; in the assay on HupT3 (HuP-T3, 72 hrs, MTS), > 50000 nM.

In the case of `Cn1cc(C2=C(c3coc4cc(CO)ccc34)C(=O)NC2=O)c2cc(Br)ccc21` [Compound 22, 3-(5-Bromo-1-methyl-1H-indol-3-yl)-4-(6-hydroxymethyl-benzofuran-3-yl)-pyrrole-2,5-dione], the IC50 amounted to 337 nM on CDK-2/cyclinE; 0.93 µM against CDK-1/cyclinB; 0.55 µM against CDK-2/cyclinA; 1.08 µM on CDK-4/cyclinD1; 0.51 µM on CDK-6/cyclinD3; 14200 nM in the assay on OVCA432. Further, in the assay on SKOV3, half-maximal inhibition (IC50) required 51500 nM.

In the case of `Cn1cc(C2=C(c3coc4ccccc34)C(=O)NC2=O)c2ccccc21` [Compound 1, 3-Benzofuran-3-yl-4-(1-methyl-1H-indol-3-yl)-pyrrole-2,5-dione], the 50% inhibitory concentration (IC50) in assay [1] came to 35 ± 9 nM; against CDK-2/cyclinE, 1410 nM; in the assay with MIAPaCa-2 (MIA PaCa-2, 72 hrs, MTS), 3000 nM. Moreover, the “IC50 Ratio CDK-2/cyclinE GSK-3β” value at CDK-2/cyclinE turned out to be 40. For the same compound, the “Inhibition of pancreatic cancer cell proliferation compared with AR-A014418 and SB216768” value in [2] is listed as “more effective inhibition of pancreatic cancer cell proliferation than these reference compounds”.

For the compound `C#CCOc1ccc2c(C3=C(c4cn(C)c5ccc(Br)cc45)C(=O)NC3=O)coc2c1` [Compound 23, 3-(5-Bromo-1-methyl-1H-indol-3-yl)-4-(6-prop-2-ynyloxy-benzofuran-3-yl)-pyrrole-2,5-dione], in assay [1], the half-maximal inhibitory concentration (IC50) is 25.3 ± 2.4 nM. Moreover, the inhibition at 1 µM turned out to be 22% against CDK2 (1 μM), 84% at GSK3α (1 μM), 12% against PDK1 (1 μM) and 3% on PKCβ2 (1 μM). Besides, the inhibition at 10 µM against CDK2 (10 μM) is 66%; on GSK3α (10 μM) it was 99%; at PDK1 (10 μM) it was 45%; at PKCβ2 (10 μM), 25%.

Turning to `Cn1cc(C2=C(c3coc4cc(F)c(F)cc34)C(=O)NC2=O)c2ccc3ccccc3c21` [Compound 55, 3-(5,6-Difluoro-benzofuran-3-yl)-4-(1-methyl-1H-benzo[g]indol-3-yl)-pyrrole-2,5-dione], the IC50 in assay [1] stood at 314 ± 19 nM; with MIAPaCa-2 (setting [3]), 17000 ± 3200 nM; in the assay with MIAPaCa-2 (MIA PaCa-2, 72 hrs, MTS), 17000 nM; with BXPC-3 (BXPC-3, 72 hrs, MTS), 7000 nM; in the assay on HupT3 (setting [5]), 6000 ± 700 nM; in the assay on HupT3 (HuP-T3, 72 hrs, MTS), 6000 nM. Besides, in assay [2], the “Inhibition of pancreatic cancer cell proliferation compared with AR-A014418 and SB216768” value is reported as “more effective inhibition of pancreatic cancer cell proliferation than these reference compounds”.
